Results as given in patent US12642799B2, “Composition and method for treating COVID-19” (University of South Florida, priority 2021, dated 2026).
Read-outs that look alike come from different tables or passages of the source.

Assays:
[1] = system: IL-6, IL-1β, and TNFα; assay type: cell-based
[2] = system: GFP-CoV-2 infected mature adipocytes; assay type: cell-based, SARS CoV-2; settings: for reduction in infection by cytoimmunochemical staining (SARS CoV-2/ACE2): mature adipocytes, FIG. 3C
[3] = system: CoV-2 infection; assay type: in vivo, human; settings: obese Type 2 diabetic patient, oral, retested twice over several weeks
[4] = system: SARS CoV-2 infected Caco2 cells; assay type: cell-based
[5] = system: serum inflammatory markers and anti-inflammatory cytokines; settings: Type 2 diabetic patients; cited from earlier work

Row | Compound | expression of IL-1β (fold change) [1] | expression of IL-6 (fold change) [1] | expression of TNFα (fold change) [1] | inhibition of viral infection (integrated density of GFP expression) ([2]; […], metformin 10 mM, sitagliptin 20 uM) | reduction in infection by cytoimmunochemical staining (SARS CoV-2/ACE2) [2] | virus test after treatment [3] | expression of SARS CoV-2 N protein (fold change) [4] | expression of SARS CoV-2 S protein (fold change) [4] | anti-inflammatory cytokines [5] | serum levels of inflammatory markers [5] | inhibition of viral infection (integrated density of GFP expression) [2]
1 | N[C@@H](CC(=O)N1CCn2c(nnc2C(F)(F)F)C1)Cc1cc(F)c(F)cc1F [sitagliptin] | decreasing expression | decreasing expression | decreasing expression | highest reduction | highest reduction | tests negative for the virus | larger decrease than metformin | larger decrease than metformin | increased | significantly decreased | –
2 | CN(C)C(=N)N=C(N)N [metformin] | decreasing expression | decreasing expression | decreasing expression | – | reduction in infection | – | decreasing expression | decreasing expression | – | – | inhibited viral infection
